Measurements from patent US12708620B2, “Prodrugs and medical uses thereof” (priority 2018, dated 2026).

Experiments:
Assay type in all cases: in vivo, BALB/c Nude Mice
[1] = tested on: MDA-MB-436 tumor xenograft; assay: triple negative breast cancer xenograft model; settings: MDA-MB-436 xenograft, single treatment cycle; for Anti-tumor effect: 600 mg/kg IP, hypoxic status confirmed, methanesulfonate, 600 mg/kg
Procedure: (§1) All animal models were established as xenograft model in BALB/c Nude Mice (6-8 weeks old, 17-23 grams, maintained in standard conditions and diet), following approved IACUC (Institutional Animal Care and Use Committees) protocols. Cpd.11 Ms was formulated using 2% dimethyl sulfoxide (DMSO in water for injection, starting from a Cpd.11 Ms main preparation (100-60 mg/ml in 2% DMSO in water for injection).
(§2) After tumor cell inoculation, the animals were checked daily for morbidity and mortality. Before commencement of treatment all animals were weighed and the tumor volumes were measured using a caliper. The treatments were started when the mean tumor size reached approx. 250 mm^3. Each treated/control group contained 10 mice that were randomly assigned and injected daily for 5 days. The date of tumor cell inoculation was denoted as day 0 (thus injections were performed at day 1, 2, 3, 4, and 5). At the time of routine monitoring, the animals were checked for any effects of tumor growth and treatments on normal behavior such as mobility, visual estimation of food and water consumption, body weight gain/loss (body weights were measured daily during the 5-day treatment and thrice weekly after treatment), eye/hair matting and any other abnormal effect. Death and observed clinical signs were recorded on the basis of the numbers of animals within each subset. Tumor volumes were measured daily during the 5-day treatment and thrice weekly after treatment in two dimensions using a caliper, and the volume was expressed in mm3 using the formula: V=0.5 a×b2 where a and b are the long and short diameters of the tumor, respectively. The entire procedures of dosing as well as tumor and body weight measurement were conducted in a Laminar Flow Cabinet. Individual mice were euthanized by cervical dislocation when the tumor size reached 1400-1600 mm3. The surrogate endpoint for survival was calculated and indicated as TVx4 (initial tumor volume times 4). Statistical analysis of difference in tumor volume among the groups was conducted at the end of experiment using Independent-Samples T Test. All data were analyzed in SPSS (Statistical Product and Service Solutions) version 18.0 (IBM, Armonk, NY, U.S.). P-values were rounded to three decimal places, with the exception that raw P-values less than 0.001 were stated as P<0.001. All tests were two-sided. P<0.05 was considered to be statistically significant.
For the MDA-MB-436 tumor (ATCC: HTB-130; Passage: P4) cells were maintained in vitro as a monolayer culture in L-15 medium supplemented with 10% heat inactivated fetal bovine serum at 37° C. in an atmosphere of 100% air. […] The cells growing in an exponential growth phase were harvested and counted for tumor inoculation. […]

[2] = tested on: NCI-H69 tumor xenograft; assay: lung cancer (SCLC) xenograft model; settings: for Anti-tumor effect: 600 mg/kg IP, hypoxic status confirmed, methanesulfonate, 600 mg/kg
Procedure: as §1
as §2, with “Each treated/control group contained 10 mice that were randomly assigned and injected daily for 5 days.” left out
For the MDA-MB-436 tumor (ATCC: HTB-130; Passage: P4) cells were maintained in vitro as a monolayer culture in L-15 medium supplemented with 10% heat inactivated fetal bovine serum at 37° C. in an atmosphere of 100% air. For NCI-H69 (ATCC: HTB-119; Passage: P3), tumor cells were maintained in vitro in RPMI1640 medium supplemented with 10% fetal bovine serum at 370C in an atmosphere of 5% CO2 in air. For PANC-1 (ATCC: CRL-1469; Passage: P2) tumor cells were maintained in vitro as a monolayer culture in DMEM medium supplemented with 10% heat inactivated fetal bovine serum at 37 °C in an atmosphere of 5% CO2 in air. The tumor cells were routinely sub-cultured twice weekly by trypsin-EDTA treatment. The cells growing in an exponential growth phase were harvested and counted for tumor inoculation. Each mouse was inoculated with 1×10^7 tumor cells (orthotopically at the right mammary fat pad for MDA-MB-436 model, or subcutaneously at the right flank region for both NCI-H69 model and PANC-1 model) in 0.1 ml of PBS mixed with Matrigel (1:1, Corning, #354234) for tumor development. […]

[3] = tested on: NCI-H1650 tumor xenograft; assay: lung cancer (NSCLC) xenograft model
Procedure: as §1
After tumor cell inoculation, the animals were checked daily for morbidity and mortality. Before commencement of treatment all animals were weighed and the tumor volumes were measured using a caliper. The treatments were started when the mean tumor size reached approx. 250 mm^3. […] At the time of routine monitoring, the animals were checked for any effects of tumor growth and treatments on normal behavior such as mobility, visual estimation of food and water consumption, body weight gain/loss (body weights were measured daily during the 5-day treatment and thrice weekly after treatment), eye/hair matting and any other abnormal effect. Death and observed clinical signs were recorded on the basis of the numbers of animals within each subset. […] The surrogate endpoint for survival was calculated and indicated as TVx4 (initial tumor volume times 4). […] All data were analyzed in SPSS (Statistical Product and Service Solutions) version 18.0 (IBM, Armonk, NY, U.S.). […]

[4] = tested on: MDA-MB-231 tumor xenograft; assay: triple negative breast cancer xenograft model; settings: MDA-MB-231 xenograft; single treatment cycle

CCN1CCN(C(=O)c2cc(N(CCBr)CCOS(C)(=O)=O)c(S(C)(=O)=O)cc2[N+](=O)[O-])CC1.CS(=O)(=O)O [Cpd.11 Ms, 4-(5-((2-bromoethyl) (2-((methylsulfonyl)oxy)ethyl)amino)-4-(methylsulfonyl)-2-nitrobenzoyl)-1-ethylpiperazin-1-ium methanesulfonate]
Anti-tumor effect ([1]; listed as Cpd.11Ms): Strong impact, | Anti-tumor effect [1]: significant regression of the tumour | effects on body weight ([1]; IP): absence of effects on body weight | median surrogate survival index (TVx4) compared to vehicle treated animals ([1]; IP): more than double | Anti-tumor effect ([2]; single treatment cycle, listed as Cpd.11Ms): Strong impact, | Anti-tumor effect ([2]; single treatment cycle): significant regression of the tumours | therapeutic response with alternative regimens ([2]; repeated administration over 3 weeks): longer term tumor control | effects on body weight ([2]; single treatment cycle, IP): absence of effects on body weight | median surrogate survival index (TVx4) in comparison to vehicle treated animals ([2]; single treatment cycle, IP): doubled | Anti-tumor effect ([3]; 600 mg/kg IP, hypoxic status confirmed): Clear impact, | median surrogate survival index ([3]; single treatment cycle): significant effect | tumour growth [4]: tumour growth rate reduction
